Test results reported in article PMC9127750, “Structure-based design of CDC42 effector interaction inhibitors for the treatment of cancer” (Cell reports, 2022).
Several values for one entry are separate records, joined by “and”; a condition that tells them apart may be missing. Identical values can stand only once.

Test system: WM3248 melanoma cells, 486 antibodies
Test: Reverse phase protein arrays (RPPA)
Type: cell-based, Human
Conditions: 20 uM, single replicates
From the text: Pellets were snap frozen in liquid nitrogen and shipped to MD Anderson Cancer Center core RPPA facility for RPPA analysis (Table S5). Three biological replicates for each sample were generated.
Nomenclatures on the RPPA heatmaps: name_of_antibody.species_of_antibody.status_of_antibody. V - antibody validated; C - validation of antibody in progress; Q - antibody nonspecific; E – under evaluation; antibodies raised in M - mouse, G - goat, R - rabbit, or T - rat.

SMILES: CN(C)c1cccc(Nc2cc(-c3ccccc3)nc(C3CCNCC3)n2)c1 [ARN22089, N1,N1-dimethyl-N3-(6-phenyl-2-(piperidin-4-yl)pyrimidin-4-yl)benzene-1,3-diamine]
- RPPA level HSP60.R.V: 1.015 and 0.888 and 1.096
- RPPA level HSP70.R.C: 1.026 and 1.351 and 1.104
- RPPA level Hexokinase.I.R.C: 0.978 and 0.986
- RPPA level Hexokinase.II.R.V: 1.256 and 0.762 and 0.871
- RPPA level Hif.1αR.C: 0.972 and 1.096 and 0.645
- RPPA level Histone.H3.R.V: 1.540 and 13.252 and 0.726
- RPPA level Histone.H3_pS10.R.V: 1.398 and 3.688 and 0.992
- RPPA level IDO.R.C: 0.839 and 1.159
- RPPA level IGF1R_pY1135_Y1136.R.V: 0.898 and 1.026 and 1.052
- RPPA level IGFBP2.R.V: 0.627 and 0.801 and 1.270
- RPPA level IGFBP3.M.V: 0.715 and 1.003 and 1.004
- RPPA level IGFRb.R.C: 1.190
- RPPA level IL.6.R.C: 0.855 and 1.111 and 1.060
- RPPA level IMP3.R.C: 1.052 and 1.022 and 0.974
- RPPA level INPP4b.R.C: 1.077 and 0.833 and 0.806
- RPPA level IR.b.R.C: 0.907 and 1.208 and 1.333
- RPPA level IRF.1.R.V: 0.730 and 0.964 and 1.168
- RPPA level IRF.3.R.V: 0.995 and 0.906 and 0.945
- RPPA level IRS1.R.V: 1.014 and 1.159 and 1.141
- RPPA level IRS2.R.C: 1.278 and 1.343 and 1.011
- RPPA level JAB1.M.C: 0.955 and 0.936 and 1.024
- RPPA level JNK2.R.V: 0.819 and 0.805 and 1.152
- RPPA level JNK_pT183_Y185.R.C: 0.945 and 1.049 and 1.120
- RPPA level Jagged1.R.V: 0.981 and 1.189
- RPPA level Jak2.R.V: 1.014 and 1.017
- RPPA level KAP1.R.V: 1.154 and 0.878
- RPPA level KEAP1.R.V: 1.208 and 0.814 and 0.859
- RPPA level LAD1.R.V: 0.839 and 1.022 and 1.196
- RPPA level LC3A.B.R.C: 1.392 and 1.015
- RPPA level LCN2.R.V: 2.637 and 0.737 and 1.009
- RPPA level LDHA.R.C: 0.867 and 0.798 and 1.272
- RPPA level LRP6_pS1490.R.V: 0.973
- RPPA level Lasu1.R.V: 1.275 and 1.065 and 0.935
- RPPA level Lck.R.V: 1.245 and 1.124 and 1.192
- RPPA level Lyn.R.V: 1.188 and 0.948
- RPPA level MACC1.R.V: 1.006 and 1.026 and 0.991
- RPPA level MAPK_pT202_Y204.R.C: 0.788 and 0.541 and 0.701
- RPPA level MCT4.R.V: 0.646 and 0.854 and 1.188
- RPPA level MDM2_pS166.R.V: 1.371 and 1.241 and 1.078
- RPPA level MEK1.R.V: 0.858 and 3.823 and 2.342
- RPPA level MEK1_pS217_S221.R.V: 0.758 and 1.168 and 1.336
- RPPA level MEK2.R.V: 1.000 and 1.139
- RPPA level MERIT40.R.C: 0.830 and 0.763
- RPPA level MERIT40_pS29.R.V: 0.843 and 1.161
- RPPA level METTL3.R.V: 1.391 and 1.001
- RPPA level MIF.R.C: 1.003 and 0.889 and 0.956
- RPPA level MIG6.R.V: 0.962 and 1.022 and 0.982
- RPPA level MITF.R.V: 1.062 and 1.054 and 0.977
- RPPA level MLH1.M.V: 0.822 and 0.867 and 0.972
- RPPA level MLKL.R.V: 0.744 and 0.811 and 1.046
- RPPA level MMP2.R.V: 1.019 and 0.966 and 0.959
- RPPA level MMP14.R.V: 1.320 and 1.294 and 1.349
- RPPA level MR1.M.C: 0.957 and 1.152 and 0.970
- RPPA level MRAP.R.C: 0.958 and 1.263 and 1.157
- RPPA level MSH2.R.C: 0.876 and 0.877 and 0.987
- RPPA level MSH6.R.C: 1.224 and 1.204 and 1.063
- RPPA level MSI2.R.C: 1.222 and 1.004
- RPPA level MTCO1.M.V: 1.417 and 0.726
- RPPA level MTSS1.M.C: 0.974 and 1.002 and 0.966
- RPPA level Mcl.1.R.V: 0.716 and 0.788 and 1.009
- RPPA level MelanA.R.C: 1.005
- RPPA level Melanoma.gp100.R.C: 0.910 and 0.978 and 1.134
- RPPA level Merlin.R.C: 1.134 and 1.227 and 1.109
- RPPA level Midkine.R.V: 0.990 and 0.926 and 0.994
- RPPA level Mitofusin.1.R.V: 0.874 and 0.829 and 1.152
- RPPA level Mitofusin.2.R.V: 0.751 and 0.836
- RPPA level Mnk1.R.V: 0.933 and 0.905 and 1.031
- RPPA level mTOR.R.V: 0.956 and 0.920
- RPPA level mTOR_pS2448.R.C: 0.845 and 0.920 and 0.976
- RPPA p21.R.C: 1.050 and 0.570 and 0.863
- RPPA p27.Kip1.R.C: 1.342 and 1.132 and 0.997
- RPPA p27_pT157.R.C: 1.309 and 1.207 and 1.127
- RPPA p27_pT198.R.V: 1.003 and 1.297 and 1.169
- RPPA p38.MAPK.R.V: 0.937 and 0.864 and 1.143
- RPPA p38.MAPK._pT180_Y182.R.V: 0.828 and 1.168 and 1.281
- RPPA p38.a.M.V: 0.862 and 0.943
- RPPA p44.42.MAPK.R.V: 1.247 and 0.862 and 0.981
- RPPA p53.R.C: 0.928 and 1.483 and 1.058
- RPPA p70.S6K1.R.V: 1.060 and 0.948
- RPPA p70.S6K_pT389.R.V: 0.797 and 1.020 and 1.171
- RPPA p90RSK_pT573.R.C: 1.285 and 0.748 and 1.009
